Test results from patent publication US20030077289A1, “Use of cell-penetrating peptides to generate antitumor immunity” (priority 2001, published 2003).
Residues, ends and D or L forms follow the SMILES beside them.

What was measured:
[1] = tested on: B16 tumor; conditions: Schreurs et al., 2000; 9-mer versus 8-mer; cited from earlier work
[2] = tested on: mature DCs; test: Entry of fluorescein-labeled peptides into mature DCs (fluorescence microscopy); format: cell-based, C57BL/6 mouse
Procedure: 1A) Peptide sequences for cell-penetrating peptide (CPP1), TRP-2 and control peptides. B) Fluorescence and phase-contrast microscopy of DC incubated with various peptide-FITC (40×magnification). DCs incubated with PBS served as a control. 1C) DCs incubated with CPP1-TRP2-FITC and viewed by phase-contrast or fluorescence microscopy at 60×magnification. Representative examples of DC/CPP1-TRP2-FITC are shown. The penetrating fluorescent peptide was localized in both the cytoplasm as well as the cell nucleus. 1D) T cell response to DCs loaded with each peptide (solid circle for CPP1-TRP2, open circle for TRP2, and open triangle for CPP1-βgal) at different time points after peptide pulsing. GM-CSF release from T cells was determined by ELISA.
Dendritic Cell Preparation and Analysis. Mouse immature and mature DCs were derived from C57BL/6 bone marrow as previously described (Labeur et al., 1999; Specht et al., 1997). Phenotype and mixed leukocyte reaction activity of DCs were analyzed according to the protocol described (Specht et al., 1997). Briefly, immature DCs were generated in the presence of murine GM-CSF without transfer steps. The loosely adherent immature DCs were harvested on day 5 and used for experiments. Mature DCs were generated in the presence of recombinant GM-CSF and 1000 U/ml of IL-4 (Peprotech, Rocky Hill, N.J.). […]

[3] = tested on: CD4+ T cells; test: Peptide-specific CD4+ T cell activity; format: cell-based

| Compound | CTL activity in vitro after multiple immunization [1] | intracellular localization of peptide in DCs ([2]; fluorescein-labeled peptide, mature DC) | internalization of peptide into mature DCs ([2]; peptide labeled at N-terminus with fluorescein, incubated with mature DC) | peptide-specific CD4+ T cell activity [3] |
| --- | --- | --- | --- | --- |
| CC(C)C[C@H](NC(=O)[C@H](Cc1c[nH]c2ccccc12)NC(=O)[C@@H](NC(=O)[C@H](Cc1ccccc1)NC(=O)[C@H](Cc1ccccc1)NC(=O)[C@H](CC(=O)O)NC(=O)[C@H](Cc1ccc(O)cc1)NC(=O)[C@@H](N)C(C)C)C(C)C)C(=O)O [TRP2 (VYDFFVWL 8-mer), VYDFFVWL] (H-VYDFFVWL-OH) | comparable | – | – | – |
| AAVLLPVLLAAPSVYDFFVWL [CPP1-TRP2, TRP2 peptide covalently linked to cell-penetrating peptide CPP1 (21-mer)] | – | translocated and accumulated in the cytoplasm as well as the cell nucleus | efficiently internalized | not detected |
| SVYDFFVWL [TRP2, reference compound] | – | – | – | not detected |
